Results from patent US20090185973A1, “METHODS, COMPOSITIONS, UNIT DOSAGE FORMS, AND KITS FOR PHARMACOLOGIC STRESS TESTING WITH REDUCED SIDE EFFECTS” (ADENOBIO N.V., priority 2008, published 2009).
Values joined by “and” are separate entries in the source; they are usually repeats but may differ in a detail not shown here. Equal values may be shown once. Read-outs that look alike come from different tables or passages of the source.

Legend:
patients = assay type: in vivo, human
coronary patients = assay: SPECT imaging study, summed difference scores (Example 2, Phase II); assay type: in vivo, human; parameters: key: SDS = SSS − SRS; summed 17-segment scores, each segment 0–4; settings: Series I sequential: SC = dipyridamole 40 μg/kg bolus then adenosine 70 μg/kg/min 4 min; Adenoscan 140 μg/kg/min; 10 patients
Source text: The study was a mono-center, single-blind, 2-arm, cross-over trial.
Only those patients in whom an ischemic zone was detected were declared eligible for the second test, and were enrolled in the study if other inclusion criteria were satisfied.
SPECT images were acquired as per the standard approach performed the preceding week.
Since thallium is currently deemed the best isotope to test myocardial viability at rest, and sestamibi the best isotope to detect myocardial defects under stress conditions, a dual isotope myocardial scintigraphy technique was used for this study. The isotope was injected after a 3 minute infusion with Adenoscan or after a 2.5 minute infusion with the combination. […]
Randomization of SPECT images, and their analysis by two blinded readers, took place every 10 patients. Anonymous and randomized images were assessed using the standard 17-segment model and the semi-quantitative visual score method on a 5-point scale (from 0 to 4). An additional totally computerized quantitative method was performed using the validated CardioGam software (Segami Corp.). All images were interpreted and quantified automatically by the software calculation package. […]
Summed stress scores (with Adenosine or with Adenosoft) were defined as SSS, summed rest scores (Thallium) as SRS and summed difference scores as SDS=SSS-SRS. […] If >2, images were read again by a third independent expert. […]

[1] = DIP dose 28 μg/kg, ADE 140 μg/kg/min
[2] = DIP dose 35 μg/kg, ADE 140 μg/kg/min, listed as ADE
[3] = DIP dose 40 μg/kg, ADE 140 μg/kg/min, listed as ADE

Nc1ncnc2c1ncn2[C@@H]1O[C@H](CO)[C@@H](O)[C@H]1O [adenosine]
PV Max, individual patient (patients; DIP dose 28 μg/kg bolus alone, ADE 140 μg/kg/min 3 min): 84 cm/sec
MV Max, individual patient (patients; [1]): 64 cm/s
MV Min, individual patient (patients; [1]): 20 cm/s
PV Min, individual patient (patients; [1]): 27 cm/sec
PV Max, individual patients (patients; DIP dose 35 μg/kg bolus alone, ADE 140 μg/kg/min 3 min, listed as ADE): 88 cm/sec and 84 cm/sec
MV Max, individual patients (patients; [2]): 71 cm/s and 61 cm/s
MV Min, individual patients (patients; [2]): 21 cm/s and 23 cm/s
PV Min, individual patients (patients; [2]): 25 cm/sec and 32 cm/sec
PV Max, individual patients (patients; DIP dose 40 μg/kg bolus alone, ADE 140 μg/kg/min 3 min, listed as ADE): 92 cm/sec and 112 cm/sec
PV Min, individual patients (patients; DIP dose 40 μg/kg, ADE 140 μg/kg/min): 33 cm/sec
MV Max, individual patients (patients; [3]): 67 cm/s and 86 cm/s
MV Min, individual patients (patients; [3]): 23 cm/s and 25 cm/s
SDS (summed difference scores), individual patients (coronary patients): 5 (5×) and 4 (2×) and 14 and 13 and 7
